Common to all, as to assay type: functional
Assay [1] has as its system Saccharomyces cerevisiae. Nature of the assay: DNA damaging activity against wild type yeast assessed as drug level required to produce 12 mm zone of inhibition assessed per 100 uL.
Assay [2] has as its system Saccharomyces cerevisiae. Nature of the assay: DNA damaging activity against DNA repair-deficient delta RAD52/delta TOP1 mutant yeast assessed as drug level required to produce 12 mm zone of inhibition assessed per 100 uL.
In assay [3] the test system is Saccharomyces cerevisiae. The assay can be described thus: DNA damaging activity against DNA repair-deficient delta RAD52 mutant yeast assessed as drug level required to produce 12 mm zone of inhibition assessed per 100 uL.

In the case of `CC(C)[C@@H]1C[C@@H]2C(C)(NC(=O)NCCc3ccccc3)[C@H]3C[C@@H]1C[C@]2(C)C3` (stereo partly specified), the IC12 in the assay with Saccharomyces cerevisiae [1] was 14 µg; with Saccharomyces cerevisiae [2], 12 µg; in the assay on Saccharomyces cerevisiae [3], 45 µg.
Turning to `CC(C)[C@@H]1C[C@@H]2C(C)(NC=O)[C@H]3C[C@@H]1C[C@]2(C)C3` (stereo partly specified), the IC12 amounted to 31 µg with Saccharomyces cerevisiae [1], 4.8 µg in the assay with Saccharomyces cerevisiae [2] and 51 µg in the assay with Saccharomyces cerevisiae [3].

The values above are taken from ChEMBL document CHEMBL1145718, “Two new nitrogenous sesquiterpenes from the sponge Axinyssa aplysinoides” (1997).
